Experimental findings from patent US20250127759A1, “METHODS AND DOSING REGIMENS COMPRISING A CDK2 INHIBITOR FOR THE TREATMENT OF CANCER” (PFIZER INC., priority 2021, published 2025) are described below.

One series concerns MCF7 cells. Nature of the series: Cell cycle distribution and DNA synthesis, MCF7. It is filed as cell-based. Particulars: 72-hour treatment with 300 nM. As to the method:
The effect of PF-07104091 on cell cycle distribution and DNA synthesis was determined following 72-hour treatment with 300 nM PF-07104091.

The nature of series [1]: In vivo efficacy, MCF7 breast cancer model. Particulars: female, mouse, NSG mice, po, BID, read-out: maximum tolerated dose level. As for the experimental part:
(§1) Female NSG (Jackson Lab) or Nu/nu (CRL) were subcutaneously implanted with tumor cells or fragments (8 mm^3 to 27 mm^3) into the dorsal region. For the MCF7 study, mice were supplemented with estrogen (sc implanted, 17β-estradiol, 0.36 mg, 90-day release pellet, Innovative Research of America, cat no. NE-121).
The MCF7 model was established by implanting donor tumor fragments into recipient mice. To establish the MCF7 donor mice, tumor cells (5×10^6 cells/mouse with 50% Cultrex® Basement Membrane Matrix) were subcutaneously implanted in female NSG mice. […] 150 mg/kg, po, BID is the maximum tolerated dose level in this model. PF 07104091 was administered (p.o.) BID (7 hr apart). TGI was assessed on Day 21 post first dose (or Day 42 post tumor fragment implant).

In a further series the test system is NCI-H526 Model. Nature of the series: In vivo efficacy, NCI-H526 small cell lung cancer model. Also on record: species or system mice. Conditions: Day 15. As to the method: as §1
To establish the NCI-H526 model, tumor cells (4×10^6 cells/mouse with 50% Cultrex® Basement Membrane Matrix) were subcutaneously implanted in female Nu/nu mice. […] PF-07104091, Palbociclib at 10 mg/kg and CDK 2/4/6 inhibitor were administered (p.o.) BID (7 hr apart). TGI was assessed on Day 15 post first dose (or Day 20 post tumor cell implant).

Series [2] in a line: Nonclinical toxicity study, mouse. It is filed as in vivo. As for the experimental part: The selection of the starting dose and regimen was based on the nonclinical toxicology and PK results in accordance with the ICH S9 Guidance. Results from nonclinical toxicity studies indicate the STD10 of PF-07104091 in mouse was 150 mg/kg after BID oral administration. The human equivalent dose for the STD10 in mouse is approximately 729 mg BID (assuming a body weight of 60 kg). Per ICH-S9 guidance, one-tenth of the STD10 can be considered the appropriate starting dose. Given the predicted human t % of approximately 4 hours, the starting dose has been selected to be 75 mg BID. The human AUC0-12 hr of PF-07104091 at the proposed starting oral dose of 75 mg BID is predicted to be ˜6.5% of the observed AUC0-12 hr at the STD10 in mouse (150 mg/kg BID) and ˜80% of the observed AUC0-12 hr at the HNSTD in dog (15 mg/kg BID).

Another series deals with T47D. Nature of the series: In vivo efficacy, T47D breast cancer model. Further details: species or system mice. Conditions: Day 41, 150 mg/kg BID PO. As for the experimental part:
The T47D model was established by implanting passage 3 tumor fragments into recipient mice. To establish the T47D donor mice, tumor cells (5×10^6 cell/mouse with 50% Cultrex® Basement Membrane Matrix) were subcutaneously implanted in female NSG mice. […] All mice received treatment continuously until Day 41. TGI was assessed on Day 41 post first dose.

Marks after values point to notes of the source that are not given here.

In the case of `COCc1cc(C(=O)Nc2cc([C@H]3CC[C@@H](OC(=O)NC(C)C)C3)[nH]n2)n(C)n1` [PF-07104091, (1R,3S)-3-[3-({[3-(methoxymethyl)-1-methyl-1H-pyrazol-5-yl]carbonyl}amino)-1H-pyrazol-5-yl]cyclopentyl propan-2-ylcarbamate], the cell cycle arrest entry in the series with MCF7 cells was “significant G2/M arrest”. In the series with MCF7 cells (p≤0.05 versus vehicle), the “S phase (cell cycle distribution)” value was “Significant S phase reduction”. For the same molecule, in series [1], the MTD at 21 days turned out to be 150 mg/kg. Besides, the figures for the TGI % in the series with NCI-H526 Model (25 mg/kg BID PO), in the series on NCI-H526 Model (75 mg/kg BID PO) and in the series with T47D were 44%, 45% and 82* %, respectively. The “human equivalent dose for the STD10 in mouse” value in series [2] (assuming a body weight of 60 kg) was “approximately 729 mg BID”. Also, the STD10 in series [2] (mouse, BID oral administration) was found to be 150 mg/kg.
